Assay results reported in patent US20190152946A1, “Novel Compounds” (GlaxoSmithKline Intellectual Property Development Limited, priority 2016, published 2019).

Assays:
Assay type in all cases: cell-based
PTK2B = biological target: T1, PTK2B (Homo sapiens, UniProt Q14289); test: Expression proteomics in THP-1 cells, PTK2B level; conditions: PTK2B protein log2 fold change, 24 h, 1.0 μM
T1 construct: endogenous in cells; host or cells: THP-1
Protocol: (§1) THP-1 cells were seeded at a concentration of 3×10^6 cells in T175 flasks with 60 mL growth medium (RPM11640+10% FBS). […] of a 10× compound solution prepared in growth medium (DMSO), IAP PROTAC) was added and the cells were treated for the indicated time points (6 or 24 h) at 37° C., 5% CO2. For harvesting the cells were collected into falcon tubes on ice, centrifuged and washed twice in cold PBS (Life technologies). After the last washing step the supernatant was removed and the pellets were snap-frozen in liquid N2 and stored at −80° C. and lysed in 2% SDS for 3 min at 95° C. in a thermomixer (Thermo Fisher Scientific), followed by digestion of DNA with Benzonase at 37° C. for 1.5 h. Lysate was cleared by centrifugation an protein concentration in supernatant was determined by BCA assay.
(§2) Leukemia 25, 89-100 (2011).
(§3) Samples were dried in vacuo and resuspended in 0.05% trifluoroacetic acid in water. […]
(§4) Reporter ion intensities were read from raw data and multiplied with ion accumulation times (the unit is milliseconds) so as to yield a measure proportional to the number of ions;
(§5) Nat Biotech 29, 255-265 (2011). this measure is referred to as ion area Savitski, M. M. et al. Delayed Fragmentation and Optimized Isolation Width Settings for Improvement of Protein Identification and Accuracy of Isobaric Mass Tag Quantification on Orbitrap-Type Mass Spectrometers. […]

AURKA = biological target: T2, AURKA (Homo sapiens, UniProt O14965); test: Expression proteomics in THP-1 cells, AURKA level; conditions: AURKA protein log2 fold change, 24 h, 1.0 μM
T2 construct: endogenous in cells; host or cells: THP-1
T2 sequence (O14965 1-403): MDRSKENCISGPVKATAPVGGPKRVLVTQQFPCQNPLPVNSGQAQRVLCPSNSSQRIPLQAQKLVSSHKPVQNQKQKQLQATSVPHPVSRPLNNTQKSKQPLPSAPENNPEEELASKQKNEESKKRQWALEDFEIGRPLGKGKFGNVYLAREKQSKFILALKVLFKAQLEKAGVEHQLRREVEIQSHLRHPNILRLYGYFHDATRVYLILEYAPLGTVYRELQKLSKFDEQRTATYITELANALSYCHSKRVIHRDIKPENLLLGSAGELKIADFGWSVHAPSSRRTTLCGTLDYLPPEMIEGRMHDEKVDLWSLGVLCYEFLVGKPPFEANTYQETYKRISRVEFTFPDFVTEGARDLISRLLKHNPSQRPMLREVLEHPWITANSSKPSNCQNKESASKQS
Protocol: as §1, §2, §3, §4, §5

PTK2 = biological target: T3, PTK2 (Homo sapiens, UniProt Q05397); test: Expression proteomics in THP-1 cells, PTK2 level; conditions: PTK2 protein log2 fold change, 24 h, 1.0 μM
T3 construct: endogenous in cells; host or cells: THP-1
T3 sequence (Q05397 whole entry): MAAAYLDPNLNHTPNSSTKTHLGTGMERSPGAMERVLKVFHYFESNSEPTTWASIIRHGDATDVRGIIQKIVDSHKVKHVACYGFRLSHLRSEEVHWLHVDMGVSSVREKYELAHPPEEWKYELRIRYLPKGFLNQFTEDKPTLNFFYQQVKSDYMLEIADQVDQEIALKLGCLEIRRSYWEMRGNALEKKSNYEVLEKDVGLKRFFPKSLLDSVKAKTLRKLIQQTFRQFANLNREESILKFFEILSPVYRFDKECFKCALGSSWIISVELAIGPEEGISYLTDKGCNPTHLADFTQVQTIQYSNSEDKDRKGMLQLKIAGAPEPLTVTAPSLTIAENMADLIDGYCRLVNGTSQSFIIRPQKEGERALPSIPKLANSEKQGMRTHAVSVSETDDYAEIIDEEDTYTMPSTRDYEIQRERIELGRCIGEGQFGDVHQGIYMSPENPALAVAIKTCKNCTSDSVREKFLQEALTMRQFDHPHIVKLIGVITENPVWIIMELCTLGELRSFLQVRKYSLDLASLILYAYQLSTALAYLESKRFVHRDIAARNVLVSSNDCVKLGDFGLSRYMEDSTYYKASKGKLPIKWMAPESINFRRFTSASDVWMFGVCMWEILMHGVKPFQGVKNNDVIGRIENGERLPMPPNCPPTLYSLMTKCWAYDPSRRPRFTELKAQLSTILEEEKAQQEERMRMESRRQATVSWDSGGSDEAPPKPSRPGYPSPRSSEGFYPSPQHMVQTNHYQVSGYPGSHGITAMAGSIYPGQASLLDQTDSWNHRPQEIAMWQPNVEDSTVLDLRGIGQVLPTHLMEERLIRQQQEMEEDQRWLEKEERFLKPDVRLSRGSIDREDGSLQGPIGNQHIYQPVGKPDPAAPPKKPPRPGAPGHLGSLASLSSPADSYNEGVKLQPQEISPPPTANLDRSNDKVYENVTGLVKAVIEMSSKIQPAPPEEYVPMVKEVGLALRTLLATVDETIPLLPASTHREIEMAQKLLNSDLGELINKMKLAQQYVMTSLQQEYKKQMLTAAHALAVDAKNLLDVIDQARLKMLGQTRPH
Protocol: as §1, §2, §3, §4, §5

T1 sequence (Q14289 whole entry): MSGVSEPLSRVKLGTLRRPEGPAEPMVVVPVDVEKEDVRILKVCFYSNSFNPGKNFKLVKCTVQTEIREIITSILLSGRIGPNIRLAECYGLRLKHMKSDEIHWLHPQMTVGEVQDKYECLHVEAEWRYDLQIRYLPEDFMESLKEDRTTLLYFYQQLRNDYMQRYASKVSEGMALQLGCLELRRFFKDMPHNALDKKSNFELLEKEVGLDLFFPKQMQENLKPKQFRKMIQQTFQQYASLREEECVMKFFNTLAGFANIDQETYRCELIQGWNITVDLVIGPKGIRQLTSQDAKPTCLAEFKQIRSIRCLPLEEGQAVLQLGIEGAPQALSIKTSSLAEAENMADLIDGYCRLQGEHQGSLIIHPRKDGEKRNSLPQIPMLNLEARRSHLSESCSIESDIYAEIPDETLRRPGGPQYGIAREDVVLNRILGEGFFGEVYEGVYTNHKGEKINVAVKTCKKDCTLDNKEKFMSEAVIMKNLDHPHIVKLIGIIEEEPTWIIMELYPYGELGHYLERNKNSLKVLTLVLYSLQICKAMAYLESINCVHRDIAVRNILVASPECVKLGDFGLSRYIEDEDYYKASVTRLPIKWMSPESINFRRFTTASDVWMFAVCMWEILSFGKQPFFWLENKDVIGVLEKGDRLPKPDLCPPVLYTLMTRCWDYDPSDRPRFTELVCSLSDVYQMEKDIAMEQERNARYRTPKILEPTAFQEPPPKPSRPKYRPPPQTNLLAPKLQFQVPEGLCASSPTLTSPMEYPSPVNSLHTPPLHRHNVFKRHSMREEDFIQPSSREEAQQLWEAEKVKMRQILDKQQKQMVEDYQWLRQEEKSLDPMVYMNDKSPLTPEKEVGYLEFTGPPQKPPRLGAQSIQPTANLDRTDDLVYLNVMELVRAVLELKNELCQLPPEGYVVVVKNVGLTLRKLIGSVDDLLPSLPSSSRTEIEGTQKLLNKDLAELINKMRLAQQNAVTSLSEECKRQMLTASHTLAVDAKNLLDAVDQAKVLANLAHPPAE

For CNC(=O)c1ccccc1Nc1nc(Nc2ccc(N3CCN(CCOCCOCCOCCOc4ccc5c(c4)CN(C(=O)[C@@H](NC(=O)[C@H](C)NC)C(C)(C)C)[C@H](C(=O)N[C@@H]4CCCc6ccccc64)C5)CC3)cc2)ncc1Cl [IAP, (S)-7-(2-(2-(2-(2-(4-(4-((5-Chloro-4-((2-(methylcarbamoyl)phenyl)amino)pyrimidin-2-yl)amino)phenyl)piperazin-1-yl)ethoxy)ethoxy)ethoxy)ethoxy)-2-((S)-3,3-dimethyl-2-((S)-2-(methylamino)propanamido)butanoyl)-N-((R)-1,2,3,4-tetrahydronaphthalen-1-yl)-1,2,3,4-tetrahydroisoquinoline-3-carboxamide], which “log2fc_IAP_24 h_1.0 μM_n1” value (PTK2B; replicate n1) is on record?
Its value is −1.78.

What about the “log2fc_IAP_24 h_1.0 μM_n2” value (PTK2B; replicate n2) of the same compound?
The value was −2.06.

What about the “log2fc_IAP_24 h_1.0 μM_n1” value (AURKA; replicate n1) of the same compound?
Its value is −1.81.

And the “log2fc_IAP_24 h_1.0 μM_n2” value (AURKA; replicate n2)?
The value was −1.42.

And the “log2fc_IAP_24 h_1.0 μM_n1” value (PTK2; replicate n1)?
The value was −0.90.

And the “log2fc_IAP_24 h_1.0 μM_n2” value (PTK2; replicate n2)?
Its value is −1.00.
